Here are results for 8 compounds from patent publication US7713994B2 (Wyeth LLC, priority 2005, dated 2010).

Broadly, the IC50 is the concentration at which inhibition is half-maximal.

For one assay, the target named is T1, cyclin B/CDK1 enzyme (Homo sapiens, UniProt P06493).
T1 construct: purchased New England BioLabs; host or cells: Sf9 insect cells, recombinant baculovirus
The assay is described as follows: CDK1 ELISA kinase assay (phospho-Rb ser 795 detection). It is filed as biochemical. Conditions: In Vitro Enzyme Assays, read-out: CDK1 IC50. An outline of the steps:
(§1)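 Screening was done at 10 ug/ml compound. Each partially purified cyclin/CDK complex, produced in baculovirus-infected Sf9 cells, phosphorylated a coated GST-Rb C-terminal fragment with 200 μM ATP, and Ser795 phosphorylation was quantified by HRP-ELISA at 450 nm.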
For orientation: In an ELISA, binding on a coated surface is turned into a signal by an enzyme label.

In the next assay the test system is LoVo. Kind of assay: Cytotoxicity assay (SRB), LoVo. It counts as cell-based. The conditions noted are these: Homo sapiens, LoVo, 72 h, LoVo cells, SRB, three days; read-out: In Vitro Cellular Activity IC50 LOVO. An outline of the steps:
(§2)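 BT474 (12000 cells/well) was treated for 6 days, whereas HCT-116 (4000), LoVo (6000) and MCF-7 (6000) were treated for 3 days, all in RPMI 1640 containing 5% FBS. Surviving-cell percentage came from SRB dye binding measured at 540 nm.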

In the next assay the target is T2, cyclin E/CDK2 enzyme (Homo sapiens, UniProt P24941).
T2 construct: made in house; host or cells: Sf9 insect cells, recombinant baculovirus
Kind of assay: CDK2 ELISA kinase assay (phospho-Rb ser 795 detection). It counts as biochemical. The conditions noted are these: In Vitro Enzyme Assays, read-out: CDK2 IC50. An outline of the steps: as §1

Another assay has as its target T3, cyclin D1/cdk 4 enzyme (Homo sapiens, UniProt P11802).
T3 construct: made in house; host or cells: Sf9 insect cells, recombinant baculovirus
Kind of assay: CDK4 ELISA kinase assay (phospho-Rb ser 795 detection). It is filed as biochemical. Conditions: In Vitro Enzyme Assays, 200 μM ATP, read-out: CDK4 IC50. An outline of the steps:
as §1

The test system of the next assay is HCT-116. Kind of assay: Cytotoxicity assay (SRB), HCT-116. It counts as cell-based. Conditions: Homo sapiens, HCT-116, 72 h, HCT116 cells, SRB, three days; read-out: In Vitro Cellular Activity IC50 HCT116. An outline of the steps:
as §2

The test system of a further assay is MCF-7. Kind of assay: Cytotoxicity assay (SRB), MCF-7. It is filed as cell-based. Conditions: Homo sapiens, MCF7, 72 h, MCF-7 cells, SRB, three days; read-out: In Vitro Cellular Activity IC50 MCF-7. The essentials: as §2
In the next assay the test system is BT474. Kind of assay: Cytotoxicity assay (SRB), BT474. It counts as cell-based. The conditions noted are these: Homo sapiens, BT-474, 144 h, BT474 cells, SRB, 6 days; read-out: In Vitro Cellular Activity IC50 BT474. An outline of the steps: as §2

T1 sequence (P06493 whole entry): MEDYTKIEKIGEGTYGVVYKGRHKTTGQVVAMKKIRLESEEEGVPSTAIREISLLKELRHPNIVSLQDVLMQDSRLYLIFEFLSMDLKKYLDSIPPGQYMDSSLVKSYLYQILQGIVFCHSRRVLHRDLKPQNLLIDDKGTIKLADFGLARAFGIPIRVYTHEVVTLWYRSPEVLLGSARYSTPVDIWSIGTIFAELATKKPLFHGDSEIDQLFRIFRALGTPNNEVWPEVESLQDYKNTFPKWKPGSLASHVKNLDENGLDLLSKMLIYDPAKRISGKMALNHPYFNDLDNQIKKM
T1 sequence (P14635 whole entry partner): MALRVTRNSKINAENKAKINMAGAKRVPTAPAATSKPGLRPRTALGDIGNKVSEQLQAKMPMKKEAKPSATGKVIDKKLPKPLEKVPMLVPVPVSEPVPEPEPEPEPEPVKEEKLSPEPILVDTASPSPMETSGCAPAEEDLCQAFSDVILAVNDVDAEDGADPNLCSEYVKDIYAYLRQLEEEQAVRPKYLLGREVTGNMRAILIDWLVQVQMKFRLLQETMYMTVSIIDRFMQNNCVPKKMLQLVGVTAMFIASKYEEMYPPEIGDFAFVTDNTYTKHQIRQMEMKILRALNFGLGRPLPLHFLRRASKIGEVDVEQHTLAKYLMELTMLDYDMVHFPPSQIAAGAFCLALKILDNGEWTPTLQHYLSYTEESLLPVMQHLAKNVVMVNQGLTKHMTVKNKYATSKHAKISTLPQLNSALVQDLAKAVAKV
T3 sequence (P11802 whole entry, species assumed): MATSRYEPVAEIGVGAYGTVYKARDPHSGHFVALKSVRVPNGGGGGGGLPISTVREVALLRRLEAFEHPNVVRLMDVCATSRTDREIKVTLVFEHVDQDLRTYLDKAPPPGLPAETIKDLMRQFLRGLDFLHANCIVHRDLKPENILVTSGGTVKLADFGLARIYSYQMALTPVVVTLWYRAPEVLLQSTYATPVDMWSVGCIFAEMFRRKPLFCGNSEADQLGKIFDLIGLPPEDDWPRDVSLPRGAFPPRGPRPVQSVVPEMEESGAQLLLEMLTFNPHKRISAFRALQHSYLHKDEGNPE
T3 sequence (P24385 whole entry partner, species assumed): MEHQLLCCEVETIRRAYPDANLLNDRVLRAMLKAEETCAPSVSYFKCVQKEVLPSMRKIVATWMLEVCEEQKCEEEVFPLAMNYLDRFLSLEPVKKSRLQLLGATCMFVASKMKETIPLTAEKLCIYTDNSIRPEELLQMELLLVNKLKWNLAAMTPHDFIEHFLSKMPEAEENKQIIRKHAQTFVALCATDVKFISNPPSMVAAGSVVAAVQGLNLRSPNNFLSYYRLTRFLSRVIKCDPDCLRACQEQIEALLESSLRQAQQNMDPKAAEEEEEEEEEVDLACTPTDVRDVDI

For the compound `COc1ccc(CN(C)/C=C2\C(=O)NC(=O)c3ccc(Br)cc32)cc1O` [Example 163, (4Z)-6-Bromo-4-{[(3-hydroxy-4-methoxybenzyl)(methyl)amino]methylene}isoquinoline-1,3(2H,4H)-dione], the IC50 at cyclin B/CDK1 enzyme is over 50 µM; in the assay on LoVo it was 34 µM; at cyclin E/CDK2 enzyme, 44.4 µM; at cyclin D1/cdk 4 enzyme, over 50 µM; in the assay with HCT-116, 38 µM; in the assay with MCF-7 it was 38 µM. In addition, the IC50 in the assay on BT474 was 38 µM.

Take `CCOc1ccc(CN/C=C2\C(=O)NC(=O)c3ccc(Br)cc32)cc1O` [Example 166, (4Z)-6-Bromo-4-{[(4-ethoxy-3-hydroxybenzyl)amino]methylene}isoquinoline-1,3(2H,4H)-dione]: the IC50 on cyclin B/CDK1 enzyme was over 50 µM; in the assay with LoVo it was 2.2 µM; on cyclin E/CDK2 enzyme, 45.5 µM; at cyclin D1/cdk 4 enzyme it was 0.03 µM; in the assay on HCT-116, 1.3 µM; in the assay on MCF-7, 19 µM. The IC50 in the assay with BT474 was 1.4 µM.

For the compound `O=C1NC(=O)c2ccc(-c3ccco3)cc2C1=CNc1ccc(CN2CCCC2)cc1` [Example 169, 6-Furan-2-yl-4-[(4-pyrrolidin-1-ylmethyl-phenylamino)-methylene]-4H-isoquinoline-1,3-dione], the IC50 is over 50 µM at cyclin B/CDK1 enzyme; 5.2 µM with LoVo; over 50 µM at cyclin E/CDK2 enzyme; 0.2 µM on cyclin D1/cdk 4 enzyme; 2.6 µM with HCT-116; 2.5 µM in the assay with MCF-7. Further, the IC50 in the assay on BT474 came to 1.8 µM.

On to `O=C1NC(=O)c2ccc(Br)cc2/C1=C/NCc1cc(O)ccc1O` [Example 173, (4Z)-6-Bromo-4-{[(2,5-dihydroxybenzyl)amino]methylene}isoquinoline-1,3(2H,4H)-dione], for which the IC50 on cyclin B/CDK1 enzyme is over 50 µM; with LoVo it was 17 µM; at cyclin E/CDK2 enzyme, 4.7 µM; at cyclin D1/cdk 4 enzyme, 0.11 µM; in the assay with HCT-116, 11 µM; with MCF-7, 12 µM. Further, the IC50 with BT474 was 8.3 µM.

For the compound `O=C1NC(=O)c2ccc(Br)cc2/C1=C/NCc1ccc(O)c(O)c1O` [Example 175], the IC50 on cyclin B/CDK1 enzyme is 3.1 µM; in the assay on LoVo, over 50 µM; on cyclin E/CDK2 enzyme, 18.5 µM; at cyclin D1/cdk 4 enzyme it was 4.5 µM; in the assay on HCT-116, 28 µM; in the assay on MCF-7 it was over 50 µM. In addition, the IC50 in the assay on BT474 is over 50 µM.

In the case of `COc1ccc(C(C)N/C=C2\C(=O)NC(=O)c3ccc(Br)cc32)cc1O` (centres unmarked) [Example 189, (4Z)-6-Bromo-4-({[1-(3-hydroxy-4-methoxyphenyl)ethyl]amino}methylene)isoquinoline-1,3(2H,4H)-dione], the IC50 on cyclin B/CDK1 enzyme was over 50 µM; in the assay with LoVo it was 6.4 µM; at cyclin E/CDK2 enzyme it was over 50 µM; at cyclin D1/cdk 4 enzyme, 0.37 µM; in the assay with HCT-116, 7.2 µM; in the assay with MCF-7 it was 9.9 µM. Besides, in the assay with BT474, the IC50 is 5.8 µM.

For the compound `CCCOc1ccc(CN/C=C2\C(=O)NC(=O)c3ccc(-c4cccc(F)c4)cc32)cc1O` [Example 193, (4Z)-6-(3-Fluorophenyl)-4-{[(3-hydroxy-4-propoxybenzyl)amino]methylene}-isoquinoline-1,3(2H,4H)-dione], the IC50 on cyclin B/CDK1 enzyme is over 50 µM; in the assay on LoVo it was over 50 µM; at cyclin E/CDK2 enzyme, over 50 µM; at cyclin D1/cdk 4 enzyme, 1.4 µM; with HCT-116 it was 16 µM; with MCF-7, 4.4 µM. In addition, in the assay with BT474, the IC50 was over 50 µM.

Turning to `CCCOc1ccc(CN/C=C2\C(=O)NC(=O)c3ccc(-c4ccc(F)c(F)c4)cc32)cc1O` [Example 194, (4Z)-6-(3,4-Difluorophenyl)-4-{[(3-hydroxy-4-propoxybenzyl)amino]methylene}-isoquinoline-1,3(2H,4H)-dione], the IC50 on cyclin B/CDK1 enzyme was over 50 µM; in the assay on LoVo it was over 50 µM; at cyclin E/CDK2 enzyme, over 50 µM; at cyclin D1/cdk 4 enzyme, 15.8 µM; in the assay on HCT-116 it was over 50 µM; in the assay on MCF-7, 9.1 µM. Also, in the assay on BT474, the IC50 was over 50 µM.
